Molecules are shown by their SMILES. Like-named read-outs stand apart in the source and are kept apart here.

Series [1] can be described thus: Metabolic stability in microsomes, human. Type of series: in vitro ADME. Conditions: 30 min.
The nature of series [2]: Plasma protein binding by rapid equilibrium dialysis, human. It counts as in vitro ADME. Particulars: plasma (50% in PBS). As to the method: Plasma protein binding was measured by rapid equilibrium dialysis (RED). A DMSO stock solution of the compounds was prepared at a concentration of 10 mM and diluted to a concentration of […] with 50% plasma in phosphate buffered saline (PBS, pH 7.4). Plasma samples (100 μL) and PBS (300 μL) were added to the sample chamber and the buffer chamber, respectively, after which the RED device was turn on and the samples were incubated in a shaking incubator at 37° C. for 4 hours. After dialysis, 50 μl aliquots were collected from each side of the chamber. 50 μl of blank plasma was added to the buffer sample, and 50 μl of PBS was also added to the plasma sample. 200 μL of acetonitrile containing an internal standard was added to each sample. The samples were centrifuged at 3200 g for 20 minutes at 4° C., and the supernatants were obtained and analyzed by an LC-MS/MS system. The plasma protein binding rate was calculated as follows: Free form (%)=(Buffer chamber/Plasma chamber)×100 Bound form (%)=100−Free form (%).

A further series addresses T1, CYP2C9 (Homo sapiens, UniProt P11712).
T1 construct: purchased Invitrogen
As to the kind of experiment: CYP inhibition assay (Vivid fluorometric), 2C9. It counts as biochemical. Particulars: human, recombinant human CYP2C9, pH 8; 1 μM in Table 5; read-out: CYP450 inhibition, 2C9 isozyme. How it is done: CYP450 (1A2, 2C9, 3A4) enzyme assay was performed by a fluorometric assay using a Vivid® CYP450 screening kit (Invitrogen, USA, CA) in a 96-well black plate according to manufacturer's instructions with some modifications. The assay was performed at room temperature, and the final assay volume was 100 μL. […]
A master pre-mixture (enzyme (0.5 nmol recombinant human CYP450 enzyme)/NADP regeneration solution (333 mM glucose-6-phosphate dissolved, 30 U/mL glucose-6-phosphate dehydrogenase in 100 mM KH2PO4 solution at pH 8.0)) was prepared as a CYP450 reaction buffer (200 mM KH2PO4, pH 8.0). The master pre-mixture was added to each well of the 96 well plate, followed by the vehicle DMSO (control) and test compounds, and the mixture was preincubated for 10 minutes in the plate for background reading. Subsequently, the enzyme reaction was immediately initiated through the addition of CYP450 substrate/NADP^+ mixture. After incubation for 40 minutes, the fluorescence of the product was measured with a CHAMELEON™ multi-technology plate reader (2C9, 3A4: excitation wavelength of 530 nm and emission wavelength of 590 nm, 1A2: excitation wavelength of 415 nm and emission wavelength of 460 nm). The effect of the test compounds on CYP450 (1A2, 2C9, 3A4) was expressed as the percentage of enzyme activity.

Series [3] deals with SNL rats (mechanical allodynia). Nature of the series: Antiallodynic effect (von Frey) in spinal nerve ligation (SNL) rats. It counts as in vivo, rat. How it is done: 3-1. Evaluation of In Vivo Efficacy
The antiallodynic effects (mechanical allodynia) were evaluated using rats according to a previously reported protocol. In order to evaluate the withdrawal threshold, rats (naive, SNL and CIPN) were placed on a plastic mesh floor of individual plastic cages. The rats were allowed to acclimate to the environment for 30 minutes and examined after intrathecal or intravenous administration to the caudal vein. The control group received the same volume of vehicle (intrathecal administration of saline or DMSO, intravenous administration of DMSO:PEG:PBS=1:6:3 v/v %) as the experimental groups. Evaluation of the mechanical withdrawal threshold was measured in responses to the application of calibrated von Frey filaments (Stoelting, Wood Dale, Ill., USA) to the hind paw of the rats through the holes on the mesh floor underneath the cage using the ‘up and down method’. A series of eight von Frey filaments (0.4, 0.7, 1.2, 2.0, 3.6, 5.5, 8.5, and 15 g) was applied perpendicular to the sole of the hind paw for 5 seconds while the head was bent. Active withdrawal or flinching of the paw was considered as a positive reaction. The absence of response in the rats, when a pressure was applied to 15 g von Frey filament, was used as a cut-off value. Only rats with definite allodynia (i.e., mechanical withdrawal threshold: less than 4 g after SNL or less than 5 g after CIPN) were tested. The rats after termination of the experiments were euthanized through an overdose of sevoflurane. The withdrawal threshold data for the von Frey filament test was calculated as % MPE (maximum possible effect) based on the following Calculation Equation: % MPE=[(Post-drug threshold−Post-injured baseline threshold)/(Cutoff threshold−post-injured baseline threshold)×100]. Dose-response data were analyzed using Scheffe's post hoc test and one-way analysis of variance (ANOVA).

The mark [4] stands for this setting: pH 7.4, human plasma, read-out: Plasma protein binding rate, Human (converted).

T1 sequence (P11712 whole entry): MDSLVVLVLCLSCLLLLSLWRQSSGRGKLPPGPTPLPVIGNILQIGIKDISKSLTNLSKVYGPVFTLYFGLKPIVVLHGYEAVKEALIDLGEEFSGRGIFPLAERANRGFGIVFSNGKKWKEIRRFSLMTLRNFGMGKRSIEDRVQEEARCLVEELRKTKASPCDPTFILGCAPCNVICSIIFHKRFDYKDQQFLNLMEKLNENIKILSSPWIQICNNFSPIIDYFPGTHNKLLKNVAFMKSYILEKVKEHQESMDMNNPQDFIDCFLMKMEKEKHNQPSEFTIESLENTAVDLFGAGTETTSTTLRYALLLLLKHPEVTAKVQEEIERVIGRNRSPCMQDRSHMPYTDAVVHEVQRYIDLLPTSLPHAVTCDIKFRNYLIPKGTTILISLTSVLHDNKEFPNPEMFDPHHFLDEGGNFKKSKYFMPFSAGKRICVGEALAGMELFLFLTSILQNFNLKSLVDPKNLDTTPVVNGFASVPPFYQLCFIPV

`CCCc1nc(Cc2cccc(Oc3ccccc3)c2)c(C)c(C(=O)O)c1O` [Compound 29, 3-Hydroxy-5-methyl-6-(3-phenoxybenzyl)-2-propylisonicotinic acid]: the “Metabolic stability, microsomes, Human” value in series [1] is recorded as 3 % remaining after 30 min. The fraction unbound at 4 h, 5 µM in series [2] (setting [4]) was 0.001 ± 6.01e-07; in series [2] (pH 7.4, species not given, read-out: plasma protein binding), below 0.01. Further, on CYP2C9, the inhibition at 40 min, 1 µM is 26 ± 2%. In addition, in series [3] (1 μg, intrathecal administration), the “antiallodynic efficacy, MPE %” value was found to be 58±19%. For the same compound, in series [3] (intrathecal administration, von Frey), the paw withdrawal threshold entry was “increase in paw withdrawal threshold”.

With `CCCc1nc(Cc2cccc(Oc3ccccc3)c2)c(C)c(C(=O)OC)c1O` [Compound 28, Methyl 3-hydroxy-5-methyl-6-(3-phenoxybenzyl)-2-propylisonicotinate], the “Metabolic stability, microsomes, Human” value in series [1] turned out to be 0 % remaining after 30 min. Also, in series [2] (setting [4]), the fraction unbound at 4 h, 5 µM is 0.005. Moreover, at CYP2C9, the inhibition at 40 min, 1 µM amounted to 28 ± 3%. Besides, in series [3] (Rattus norvegicus, antiallodynic effect, intravenous administration), the ED50 came out at 2.62 mg/kg.

Values taken from patent US11319289B2, “5-hydroxy pyridine-based compound for use as P2X1 and P2X3 receptor antagonist and pharmaceutical composition comprising same” (GWANGJU INSTITUTE OF SCIENCE AND TECHNOLOGY, priority 2017, dated 2022).
